Assay results from patent US12054447B2, “PCNA inhibitors” (City of Hope, priority 2015, dated 2024).

Key:
Assay in all cases: NCI-60 panel test
Format in all cases: cell-based
[1] = system: SNB-19; conditions: Homo sapiens; SNB-19, NCI-60 5-dose study
Protocol: (§1) FIG. 7. NCI-60 panel test. The effect of AOH1160 on growth of the NCI-60 panel, which consists of 60 cancer cell lines representing 9 major cancer types, was tested in a 5-dose study. Shown are the Log IC50 values determined for each cell line. […] This study was performed by the National Institute of Cancer.
(§2) As observed in FIG. 7, the effect of AOH1160 on growth of the NCI-60 panel, which consists of 60 cancer cell lines representing 9 major cancer types, was tested in a 5-dose study. Shown are the Log IC50 values determined for each cell line.

[2] = system: A549/ATCC; conditions: Homo sapiens, NCI-60 5-dose study
Protocol: as §1, §2

[3] = system: TK-10; conditions: Homo sapiens; TK-10, NCI-60 5-dose study
Protocol: as §1, §2

[4] = system: SW-620; conditions: Homo sapiens; SW-620, NCI-60 5-dose study
Protocol: as §1, §2

[5] = system: HCC-2998; conditions: Homo sapiens; HCC-2998, NCI-60 5-dose study
Protocol: as §1, §2

[6] = system: NCI-H226; conditions: Homo sapiens; NCI-H226, NCI-60 5-dose study
Protocol: as §1, §2

[7] = system: KM12; conditions: Homo sapiens; KM12, NCI-60 5-dose study
Protocol: as §1, §2

[8] = system: MOLT-4; conditions: Homo sapiens; MOLT-4, NCI-60 5-dose study
Protocol: as §1, §2

[9] = system: ACHN; conditions: Homo sapiens, NCI-60 5-dose study
Protocol: as §1, §2

[10] = system: OVCAR-3; conditions: Homo sapiens; OVCAR-3, NCI-60 5-dose study
Protocol: as §1, §2

[11] = system: SN12C; conditions: Homo sapiens, NCI-60 5-dose study
Protocol: as §1, §2

[12] = system: SR; conditions: Homo sapiens, NCI-60 5-dose study
Protocol: as §1, §2

[13] = system: T-47D; conditions: Homo sapiens, T47D, NCI-60 5-dose study
Protocol: as §1, §2

[14] = system: SK-MEL-2; conditions: Homo sapiens; SK-MEL-2, NCI-60 5-dose study
Protocol: as §1, §2

[15] = system: NCI/ADR-RES; conditions: Homo sapiens, NCI-60 5-dose study
Protocol: as §1, §2

[16] = system: OVCAR-4; conditions: Homo sapiens; OVCAR-4, NCI-60 5-dose study
Protocol: as §1, §2

[17] = system: HOP-92; conditions: Homo sapiens; HOP-92, NCI-60 5-dose study
Protocol: as §1, §2

[18] = system: HCT-116; conditions: Homo sapiens; HCT-116, NCI-60 5-dose study
Protocol: as §1, §2

[19] = system: RPMI-8226; conditions: Homo sapiens; RPMI-8226, NCI-60 5-dose study
Protocol: as §1, §2

[20] = system: NCI-H522; conditions: Homo sapiens; NCI-H522, NCI-60 5-dose study
Protocol: as §1, §2

[21] = system: HOP-62; conditions: Homo sapiens; HOP-62, NCI-60 5-dose study
Protocol: as §1, §2

[22] = system: SF-268; conditions: Homo sapiens
Protocol: as §1, §2

[23] = system: NCI-H322M; conditions: Homo sapiens, NCI-60 5-dose study
Protocol: as §1, §2

[24] = system: MDA-MB-468; conditions: Homo sapiens; MDA-MB-468, NCI-60 5-dose study
Protocol: as §1, §2

[25] = system: MCF7; conditions: Homo sapiens; MCF7, NCI-60 5-dose study
Protocol: as §1, §2

[26] = system: UO-31; conditions: Homo sapiens; UO-31, NCI-60 5-dose study
Protocol: as §1, §2

[27] = system: BT-549; conditions: Homo sapiens; BT-549, NCI-60 5-dose study
Protocol: as §1, §2

[28] = system: K-562; conditions: Homo sapiens, K562; K-562, NCI-60 5-dose study
Protocol: as §1, §2

[29] = system: HCT-15; conditions: Homo sapiens; HCT-15, NCI-60 5-dose study
Protocol: as §1, §2

[30] = system: CCRF-CEM; conditions: Homo sapiens, NCI-60 5-dose study
Protocol: as §1, §2

[31] = system: HT29; conditions: Homo sapiens, HT-29; HT29, NCI-60 5-dose study
Protocol: as §1, §2

[32] = system: 786-0; conditions: Homo sapiens; 786-0, NCI-60 5-dose study
Protocol: as §1, §2

Compound | GI50 [1] [nM] | GI50 [2] [nM] | GI50 [3] [nM] | GI50 [4] [nM] | GI50 [5] [nM] | GI50 [6] [nM] | GI50 [7] [nM] | GI50 [8] [nM] | GI50 [9] [nM] | GI50 [10] [nM] | GI50 [11] [nM] | GI50 [12] [nM] | GI50 [13] [nM] | GI50 [14] [nM] | GI50 [15] [nM] | GI50 [16] [nM] | GI50 [17] [nM] | GI50 [18] [nM] | GI50 [19] [nM] | GI50 [20] [nM] | other results
COc1ccc(Oc2ccccc2NC(=O)CNC(=O)c2cccc3ccccc23)cc1 [PCNA6] | 1230 | 1260 | 2140 | 676 | 1410 | 4270 | 575 | 955 | 1510 | 389 | 2290 | 166 | 2510 | 2290 | 427 | 2240 | 25100 | 617 | 1120 | 195 | GI50 [21]: 724 nM; GI50 [22]: 2040 nM; GI50 [23]: 1230 nM; GI50 [24]: 457 nM; GI50 [25]: 257 nM; GI50 [26]: 1480 nM; GI50 [27]: 1120 nM; GI50 [28]: 145 nM; GI50 [29]: 589 nM; GI50 [30]: 912 nM; GI50 [31]: 575 nM; GI50 [32]: 1150 nM
COc1cccc(Oc2ccccc2NC(=O)CNC(=O)c2cccc3ccccc23)c1 [PCNA7/ AOH1996] | 617 | 316 | 1580 | 166 | 1260 | 2510 | 191 | 661 | 398 | 100 | 1450 | 115 | 138 | 182 | 240 | 776 | 204 | 95.5 | 955 | 178 | GI50 [21]: 302 nM; GI50 [22]: 550 nM; GI50 [23]: 1290 nM; GI50 [24]: 331 nM; GI50 [25]: 100 nM; GI50 [26]: 1820 nM; GI50 [27]: 295 nM; GI50 [28]: 129 nM; GI50 [29]: 129 nM; GI50 [30]: 363 nM; GI50 [31]: 110 nM; GI50 [32]: 182 nM
O=C(CNC(=O)c1cccc2ccccc12)Nc1ccccc1Oc1ccc(O)cc1 [PCNA1] | 1410 | 1480 | 17000 | 912 | 8910 | 4790 | 912 | 1200 | 1860 | 741 | 2190 | 457 | 1550 | 25100 | 1200 | 2820 | 25100 | 977 | 977 | 851 | GI50 [21]: 1350 nM; GI50 [22]: 3310 nM; GI50 [23]: 1150 nM; GI50 [24]: 550 nM; GI50 [25]: 851 nM; GI50 [26]: 1780 nM; GI50 [27]: 1620 nM; GI50 [28]: 501 nM; GI50 [29]: 912 nM; GI50 [30]: 933 nM; GI50 [31]: 1000 nM; GI50 [32]: 1050 nM
O=C(CNC(=O)c1cccc2ccccc12)Nc1ccccc1Oc1ccccc1 [AOH1160] | 457 | 457 | 617 | 282 | 708 | 2190 | 288 | 347 | 832 | 191 | 589 | 83.2 | 537 | 269 | 240 | 4570 | 2240 | 324 | 316 | 151 | GI50 [21]: 355 nM; GI50 [22]: 437 nM; GI50 [23]: 631 nM; GI50 [24]: 324 nM; GI50 [25]: 309 nM; GI50 [26]: 646 nM; GI50 [27]: 407 nM; GI50 [28]: 70.8 nM; GI50 [29]: 245 nM; GI50 [30]: 347 nM; GI50 [31]: 288 nM; GI50 [32]: 447 nM
O=C(CNC(=O)c1cccc2ccccc12)Nc1ccccc1Oc1cccc(O)c1 [PCNA2] | 8710 | 9550 | 25100 | 3090 | 25100 | 25100 | 2190 | 4900 | 17400 | 1510 | 25100 | 1050 | 9770 | 25100 | 7940 | 25100 | 25100 | 1380 | 8130 | 1620 | GI50 [21]: 8130 nM; GI50 [22]: 20900 nM; GI50 [23]: 10700 nM; GI50 [24]: 3550 nM; GI50 [25]: 4470 nM; GI50 [26]: 16600 nM; GI50 [27]: 25100 nM; GI50 [28]: 1050 nM; GI50 [29]: 3160 nM; GI50 [30]: 4170 nM; GI50 [31]: 21400 nM; GI50 [32]: 10000 nM
